Data reported in US20060069132A1, “Azolecarboxamide herbicides” (priority 2004, published 2006).

Columns and labels:
[1] = system: wheat; test: Test B postemergence herbicide test; format: in vivo, Triticum aestivum; parameters: key to Wheat plant response rating: 0 = no effect, 100 = complete control; settings: postemergence, visual rating, scale 0 (no effect) to 100 (complete control)
Summary of the method: (§1)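 Scale 0–100: zero equals no visible effect, 100 complete control, judged by eye relative to controls. Timing: 13 to 15 days in greenhouse post-treatment. Growth stage at spraying: two leaves (paddy) or one to four leaves, 2–18 cm (postemergence).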

[2] = system: pigweed; test: Test B pre-/postemergence herbicide test; format: in vivo, Amaranthus retroflexus; settings: for Pigweed plant response rating: postemergence, scale 0 (no effect) to 100 (complete control)
Summary of the method: (§2)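 Seeds were planted and treated preemergence with compounds formulated in a non-phytotoxic solvent mixture containing surfactant, while plants at the 1- to 4-leaf stage (2 to 18 cm) received postemergence sprays. Flooded paddy plants were grown to the 2-leaf stage. After 13 to 15 days in a greenhouse, injury was visually rated 0–100 against untreated controls.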

[3] = system: barnyardgrass; test: Test B flooded paddy test; format: in vivo, Echinochloa crus-galli; settings: 1000 g ai/ha, scale 0 to 100 (0 no effect, 100 complete control)
Summary of the method: (§3)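 Read-out: visual comparison with controls, scored 0 to 100, where 100 means complete control and 0 no effect. Formulated chemicals were applied postemergence to plants 2–18 cm tall (1- to 4-leaf), or to flooded-paddy plants at the 2-leaf stage, then held 13 to 15 days under glass.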

[4] = system: wild oat; test: Test B postemergence herbicide test; format: in vivo, Avena fatua; settings: postemergence, visual rating, scale 0 (no effect) to 100 (complete control)
Summary of the method: as §1

[5] = system: ducksalad; test: Test B flooded paddy test; format: in vivo, Heteranthera limosa; settings: 1000 g ai/ha, scale 0 to 100 (0 no effect, 100 complete control)
Summary of the method: as §3

[6] = system: velvetleaf; test: Test B pre-/postemergence herbicide test; format: in vivo, Abutilon theophrasti; settings: for Velvetleaf plant response rating: postemergence, scale 0 (no effect) to 100 (complete control)
Summary of the method: as §2

[7] = system: Surinam grass; test: Test B pre-/postemergence herbicide test; format: in vivo, Urochloa decumbens; settings: for Surinam Grass plant response rating: postemergence, scale 0 (no effect) to 100 (complete control)
Summary of the method: as §2

[8] = system: small flower umbrella sedge; test: Test B flooded paddy test; format: in vivo, Cyperus difformis; settings: 1000 g ai/ha, scale 0 to 100 (0 no effect, 100 complete control)
Summary of the method: as §3

[9] = system: cocklebur; test: Test B pre-/postemergence herbicide test; format: in vivo, Xanthium strumarium; settings: for Cocklebur plant response rating: postemergence, scale 0 (no effect) to 100 (complete control)
Summary of the method: (§4)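 Pre: seeds sown, then sprayed. Post: 1–4-leaf plants (2–18 cm) sprayed at the same time. Paddy: flooded, treated at 2-leaf stage. Formulation: non-phytotoxic solvent with surfactant. Greenhouse 13–15 days; visual 0–100 score relative to controls.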

[10] = system: barnyardgrass; test: Test B pre-/postemergence herbicide test; format: in vivo, Echinochloa crus-galli; settings: 0 = no effect, 100 = complete control, preemergence
Summary of the method: as §4

[11] = system: giant foxtail; test: Test B pre-/postemergence herbicide test; format: in vivo, Setaria faberi; settings: for Foxtail, Giant plant response rating: postemergence, scale 0 (no effect) to 100 (complete control)
Summary of the method: as §2

[12] = system: rice; test: Test B pre-/postemergence herbicide test; format: in vivo, Oryza sativa; settings: 0 = no effect, 100 = complete control, preemergence
Excerpt: Seeds selected from barnyardgrass (Echinochloa crus-galli (L.) Beauv.), Surinam grass (Urochloa decumbens (Staph) R. D. Webster, previously named Brachiaria decumbens Stapf), cocklebur (Xanthium strumarium L.), corn (Zea mays L.), large crabgrass (Digitaria sanguinalis (L.) Scop.), giant foxtail (Setaria faberi Herim.), lambsquarters (Chenopodium album L.), morningglory (Ipomoea coccinea L.), pigweed (Amaranthus retroflexus L.), rice (Oryza sativa L.) and velvetleaf (Abutilon theophrasti Medik.) were planted and treated preemergence with test chemicals formulated in a non-phytotoxic solvent mixture which included a surfactant.
At the same time, plants selected from these crop and weed species and also blackgrass (Alopecurus myosuroides Huds.), wheat (Triticum aestivum L.) and wild oat (Avena fatua L.) were treated with postemergence applications of test chemicals formulated in the same manner. Plants ranged in height from 2 to 18 cm (1- to 4-leaf stage) for postemergence treatments. Plant species in the flooded paddy test consisted of rice (Oryza sativa L.), small flower umbrella sedge (Cyperus difformis L.), ducksalad (Heteranthera limosa (Sw.) Willd.) and barnyardgrass (Echinochloa crus-galli (L.) Beauv.) grown to the 2-leaf stage for testing. Treated plants and controls were maintained in a greenhouse for 13 to 15 days, after which time all species were compared to controls and visually evaluated. Plant response ratings, summarized in Table B, are based on a scale of 0 to 100 where 0 is no effect and 100 is complete control. A dash (-) response means no test result.

[13] = system: rice; test: Test B flooded paddy test; format: in vivo, Oryza sativa; settings: 1000 g ai/ha, scale 0 to 100 (0 no effect, 100 complete control)
Summary of the method: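 Visual ratings, 0 (no effect) to 100 (complete control), made versus controls after 13–15 d greenhouse. Paddy plants treated at 2-leaf stage; postemergence plants at 1- to 4-leaf stage, 2–18 cm tall.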

[14] = system: morningglory; test: Test B pre-/postemergence herbicide test; format: in vivo, Ipomoea coccinea; settings: for Morningglory plant response rating: postemergence, scale 0 (no effect) to 100 (complete control)
Summary of the method: as §4

[15] = system: corn; test: Test B pre-/postemergence herbicide test; format: in vivo, Zea mays; settings: for Corn plant response rating: postemergence, visual rating, scale 0 (no effect) to 100 (complete control)
Summary of the method: as §2

[16] = system: lambsquarters; test: Test B pre-/postemergence herbicide test; format: in vivo, Chenopodium album; settings: for Lambsquarters plant response rating: postemergence, scale 0 (no effect) to 100 (complete control)
Summary of the method: as §2

[17] = system: large crabgrass; test: Test B pre-/postemergence herbicide test; format: in vivo, Digitaria sanguinalis; settings: for Crabgrass, Large plant response rating: postemergence, scale 0 (no effect) to 100 (complete control)
Summary of the method: as §2

[18] = system: blackgrass; test: Test B postemergence herbicide test; format: in vivo, Alopecurus myosuroides; settings: postemergence, visual rating, scale 0 (no effect) to 100 (complete control)
Summary of the method: as §3

[19] = 125 g ai/ha, 0 = no effect, 100 = complete control, preemergence
[20] = 500 g ai/ha, visual rating, 0 = no effect, 100 = complete control, preemergence

CCc1cn(C(C)(C)C)nc1C(=O)Nc1cc(C(=O)N(CC)CC)ccn1 [Compound 234]
Wheat plant response rating ([1]; 125 g ai/ha): 0 | Wheat plant response rating ([1]; 500 g ai/ha): 10 | Pigweed plant response rating (0 to 100 scale) [2, 19]: 0 | Plant response rating, Pigweed [2, 20]: 40 | Pigweed plant response rating ([2]; 125 g ai/ha, visual rating): 30 | Pigweed plant response rating ([2]; 500 g ai/ha, visual rating): 30 | Barnyardgrass plant response rating [3]: 0 | Oat, Wild plant response rating ([4]; 125 g ai/ha): 20 | Oat, Wild plant response rating ([4]; 500 g ai/ha): 20 | Ducksalad plant response rating [5]: 0 | Velvetleaf plant response rating (0 to 100 scale) [6, 19]: 0 | Plant response rating, Velvetleaf [6, 20]: 0 | Velvetleaf plant response rating ([6]; 125 g ai/ha, visual rating): 20 | Velvetleaf plant response rating ([6]; 500 g ai/ha, visual rating): 30 | Surinam Grass plant response rating (0 to 100 scale) [7, 19]: 0 | Plant response rating, Surinam Grass [7, 20]: 0 | Surinam Grass plant response rating ([7]; 125 g ai/ha, visual rating): 0 | Surinam Grass plant response rating ([7]; 500 g ai/ha, visual rating): 10 | Sedge, Umbrella plant response rating [8]: 0 | Cocklebur plant response rating (0 to 100 scale) [9, 19]: 0 | Plant response rating, Cocklebur [9, 20]: 0 | Cocklebur plant response rating ([9]; 125 g ai/ha, visual rating): 10 | Cocklebur plant response rating ([9]; 500 g ai/ha, visual rating): 20 | Barnyardgrass plant response rating (0 to 100 scale) ([10]; 125 g ai/ha): 0 | Plant response rating, Barnyardgrass ([10]; 500 g ai/ha, visual rating): 0 | Foxtail, Giant plant response rating (0 to 100 scale) [11, 19]: 0 | Plant response rating, Foxtail, Giant [11, 20]: 10 | Foxtail, Giant plant response rating ([11]; 125 g ai/ha, visual rating): 0 | Foxtail, Giant plant response rating ([11]; 500 g ai/ha, visual rating): 30 | Rice plant response rating (0 to 100 scale) ([12]; 125 g ai/ha): 0 | Plant response rating, Rice ([12]; 500 g ai/ha, visual rating): 0 | Rice plant response rating [13]: 0 | Morningglory plant response rating (0 to 100 scale) [14, 19]: 0 | Plant response rating, Morningglory [14, 20]: 0 | Morningglory plant response rating ([14]; 125 g ai/ha, visual rating): 20 | Morningglory plant response rating ([14]; 500 g ai/ha, visual rating): 70 | Corn plant response rating (0 to 100 scale) [15, 19]: 0 | Corn plant response rating ([15]; 125 g ai/ha): 0 | Corn plant response rating ([15]; 500 g ai/ha): 20 | Lambsquarters plant response rating (0 to 100 scale) [16, 19]: 0 | Plant response rating, Lambsquarters [16, 20]: 50 | Lambsquarters plant response rating ([16]; 125 g ai/ha, visual rating): 20 | Lambsquarters plant response rating ([16]; 500 g ai/ha, visual rating): 40 | Crabgrass, Large plant response rating (0 to 100 scale) [17, 19]: 0 | Plant response rating, Crabgrass, Large [17, 20]: 40 | Crabgrass, Large plant response rating ([17]; 125 g ai/ha, visual rating): 10 | Crabgrass, Large plant response rating ([17]; 500 g ai/ha, visual rating): 20 | Blackgrass plant response rating ([18]; 125 g ai/ha): 0 | Blackgrass plant response rating ([18]; 500 g ai/ha): 0
